In PubChem BioAssay (NCI):
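Protocol summary: plate cells (96-well), add compound at 5 concentrations, incubate 48 h, interpolate endpoints linearly. TGI: concentration producing complete growth inhibition.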

Legend:
Assay in all cases: growth of human tumour cells (NCI), 48 h
HT29 colon = system: HT29 colon
U251 CNS = system: U251 CNS
KM12 colon = system: KM12 colon
NCI/ADR-RES ovarian = system: NCI/ADR-RES ovarian
LOX IMVI melanoma = system: LOX IMVI melanoma
RXF 393 renal = system: RXF 393 renal
M14 melanoma = system: M14 melanoma
SN12C renal = system: SN12C renal
HS 578T breast = system: HS 578T breast
SK-MEL-2 melanoma = system: SK-MEL-2 melanoma
MOLT-4 leukemia = system: MOLT-4 leukemia
UO-31 renal = system: UO-31 renal
HCT-15 colon = system: HCT-15 colon
MDA-N = system: MDA-N
SK-MEL-5 melanoma = system: SK-MEL-5 melanoma
UACC-257 melanoma = system: UACC-257 melanoma
SK-OV-3 ovarian = system: SK-OV-3 ovarian
MDA-MB-231 breast = system: MDA-MB-231 breast
CCRF-CEM leukemia = system: CCRF-CEM leukemia
NCI-H226 lung = system: NCI-H226 lung
SNB-75 CNS = system: SNB-75 CNS
MCF7 breast = system: MCF7 breast
NCI-H522 lung = system: NCI-H522 lung
A498 renal = system: A498 renal
HOP-62 NSCLC = system: HOP-62 NSCLC
PC-3 prostate = system: PC-3 prostate
A549 NSCLC = system: A549 NSCLC
SF-268 CNS = system: SF-268 CNS
EKVX NSCLC = system: EKVX NSCLC
TK-10 renal = system: TK-10 renal
786-0 renal = system: 786-0 renal
NCI-H460 lung = system: NCI-H460 lung
RPMI-8226 leukemia = system: RPMI-8226 leukemia
HOP-92 NSCLC = system: HOP-92 NSCLC
SF-295 CNS = system: SF-295 CNS
MDA-MB-435 = system: MDA-MB-435
DU-145 prostate = system: DU-145 prostate
CAKI-1 renal = system: CAKI-1 renal
BT-549 breast = system: BT-549 breast
K-562 leukemia = system: K-562 leukemia
SF-539 CNS = system: SF-539 CNS
OVCAR-5 ovarian = system: OVCAR-5 ovarian
OVCAR-4 ovarian = system: OVCAR-4 ovarian
IGROV1 ovarian = system: IGROV1 ovarian
SNB-19 CNS = system: SNB-19 CNS
HCT-116 colon = system: HCT-116 colon
COLO 205 colon = system: COLO 205 colon
SK-MEL-28 melanoma = system: SK-MEL-28 melanoma
NCI-H23 lung = system: NCI-H23 lung
ACHN renal = system: ACHN renal
HCC-2998 colon = system: HCC-2998 colon
MALME-3M melanoma = system: MALME-3M melanoma
OVCAR-8 ovarian = system: OVCAR-8 ovarian
T-47D breast = system: T-47D breast
UACC-62 melanoma = system: UACC-62 melanoma
SW-620 colon = system: SW-620 colon
OVCAR-3 ovarian = system: OVCAR-3 ovarian
HL-60(TB) leukemia = system: HL-60(TB) leukemia
SR leukemia = system: SR leukemia

## N#CC1=C(N)OC2=C(CCCc3ccccc32)C1c1ccc([N+](=O)[O-])cc1 (stereo not drawn)
HT29 colon
  TGI: 28.2 µM
U251 CNS
  TGI: 29.8 µM
KM12 colon
  TGI: 32.5 µM
NCI/ADR-RES ovarian
  TGI: 31.6 µM
LOX IMVI melanoma
  TGI: 41.1 µM
RXF 393 renal
  TGI: 27.6 µM
M14 melanoma
  TGI: 28 µM
SN12C renal
  TGI: 29 µM
HS 578T breast
  TGI: > 100 µM
SK-MEL-2 melanoma
  TGI: 40.8 µM
MOLT-4 leukemia
  TGI: 1.64 µM
UO-31 renal
  TGI: 24 µM
HCT-15 colon
  TGI: 30.7 µM
MDA-N
  TGI: 38.2 µM
SK-MEL-5 melanoma
  TGI: 28.3 µM
UACC-257 melanoma
  TGI: 32.4 µM
SK-OV-3 ovarian
  TGI: 92.1 µM
MDA-MB-231 breast
  TGI: > 100 µM
CCRF-CEM leukemia
  TGI: 23.2 µM
NCI-H226 lung
  TGI: 52.5 µM
SNB-75 CNS
  TGI: > 100 µM
MCF7 breast
  TGI: 36.4 µM
NCI-H522 lung
  TGI: 24.2 µM
A498 renal
  TGI: 27.1 µM
HOP-62 NSCLC
  TGI: 35.9 µM
PC-3 prostate
  TGI: 38.8 µM
A549 NSCLC
  TGI: 74.6 µM
SF-268 CNS
  TGI: 32.7 µM
EKVX NSCLC
  TGI: 43 µM
TK-10 renal
  TGI: 84.9 µM
786-0 renal
  TGI: 42.6 µM
NCI-H460 lung
  TGI: 47.7 µM
RPMI-8226 leukemia
  TGI: 13.1 µM
HOP-92 NSCLC
  TGI: 57.9 µM
SF-295 CNS
  TGI: 36.1 µM
MDA-MB-435
  TGI: 39.8 µM
DU-145 prostate
  TGI: 21.8 µM
CAKI-1 renal
  TGI: > 100 µM
BT-549 breast
  TGI: 23.9 µM
K-562 leukemia
  TGI: 11.5 µM
SF-539 CNS
  TGI: 35.2 µM
OVCAR-5 ovarian
  TGI: 50.2 µM
OVCAR-4 ovarian
  TGI: 75.4 µM
IGROV1 ovarian
  TGI: 54 µM
SNB-19 CNS
  TGI: 45.7 µM
HCT-116 colon
  TGI: 26.1 µM
COLO 205 colon
  TGI: 31.7 µM
SK-MEL-28 melanoma
  TGI: 35.2 µM
NCI-H23 lung
  TGI: 34.6 µM
ACHN renal
  TGI: 39.1 µM
HCC-2998 colon
  TGI: 26.8 µM
MALME-3M melanoma
  TGI: 29.9 µM
OVCAR-8 ovarian
  TGI: 39 µM
T-47D breast
  TGI: 26.1 µM
UACC-62 melanoma
  TGI: 24.5 µM
SW-620 colon
  TGI: 35.5 µM
OVCAR-3 ovarian
  TGI: 26.7 µM
HL-60(TB) leukemia
  TGI: 28.2 µM
SR leukemia
  TGI: 37.4 µM

## C=CC[C@@]1(OC(C)=O)C(=O)C(=O)OC1C1COC(C)(C)O1 (stereo partly drawn)
HT29 colon
  TGI: 36.4 µM
U251 CNS
  TGI: 31.3 µM
KM12 colon
  TGI: 29.1 µM
NCI/ADR-RES ovarian
  TGI: 71.9 µM
LOX IMVI melanoma
  TGI: 20 µM
RXF 393 renal
  TGI: 40.1 µM
M14 melanoma
  TGI: 35.1 µM
SN12C renal
  TGI: 32.5 µM
HS 578T breast
  TGI: > 100 µM
SK-MEL-2 melanoma
  TGI: 43.5 µM
MOLT-4 leukemia
  TGI: 32.6 µM
UO-31 renal
  TGI: 31.4 µM
HCT-15 colon
  TGI: 29 µM
MDA-N
  TGI: 33.3 µM
SK-MEL-5 melanoma
  TGI: 30.4 µM
UACC-257 melanoma
  TGI: 31.9 µM
SK-OV-3 ovarian
  TGI: > 100 µM
MDA-MB-231 breast
  TGI: 30.9 µM
CCRF-CEM leukemia
  TGI: 22.7 µM
NCI-H226 lung
  TGI: > 100 µM
SNB-75 CNS
  TGI: 78.7 µM
MCF7 breast
  TGI: 33.6 µM
NCI-H522 lung
  TGI: 19.6 µM
A498 renal
  TGI: 49 µM
HOP-62 NSCLC
  TGI: > 100 µM
PC-3 prostate
  TGI: 40.2 µM
A549 NSCLC
  TGI: 58.1 µM
SF-268 CNS
  TGI: 39.4 µM
EKVX NSCLC
  TGI: 33 µM
TK-10 renal
  TGI: 30 µM
786-0 renal
  TGI: 24.6 µM
NCI-H460 lung
  TGI: 39.1 µM
RPMI-8226 leukemia
  TGI: 35.5 µM
HOP-92 NSCLC
  TGI: 30.4 µM
SF-295 CNS
  TGI: > 100 µM
MDA-MB-435
  TGI: 30.9 µM
DU-145 prostate
  TGI: 53.8 µM
CAKI-1 renal
  TGI: 4.42 µM
BT-549 breast
  TGI: 40 µM
K-562 leukemia
  TGI: 32.2 µM
SF-539 CNS
  TGI: 72.9 µM
OVCAR-5 ovarian
  TGI: 34.5 µM
OVCAR-4 ovarian
  TGI: 38.7 µM
IGROV1 ovarian
  TGI: 34 µM
SNB-19 CNS
  TGI: > 100 µM
HCT-116 colon
  TGI: 26.6 µM
COLO 205 colon
  TGI: 27.2 µM
SK-MEL-28 melanoma
  TGI: 33.5 µM
NCI-H23 lung
  TGI: 40.5 µM
ACHN renal
  TGI: 30.2 µM
HCC-2998 colon
  TGI: 40.7 µM
MALME-3M melanoma
  TGI: 32 µM
OVCAR-8 ovarian
  TGI: 41.2 µM
T-47D breast
  TGI: 37.5 µM
UACC-62 melanoma
  TGI: 32.5 µM
SW-620 colon
  TGI: 26.6 µM
OVCAR-3 ovarian
  TGI: 31.5 µM
HL-60(TB) leukemia
  TGI: 27.2 µM
SR leukemia
  TGI: 37.9 µM
